Patent US12589143B2, “Human anti-PD-L1 peptide vaccines and methods of their use” (priority 2019, dated 2026)
Where no end group is shown, it is not given here.

Tests used:
PD-1/PD-L1 interaction = biological target: T1, PD-1/PD-L1 interaction (Homo sapiens, UniProt Q9NZQ7); test: PD-1/PD-L1 blockade bioassay (Promega); format: cell-based; details: antibodies from immunized rabbits, compared to Nivolumab and Atezolizumab
T1 construct: host or cells: PD-L1 aAPC/CHO-K1 cells and PD-1 effector cells
T1 sequence (Q9NZQ7 19-290): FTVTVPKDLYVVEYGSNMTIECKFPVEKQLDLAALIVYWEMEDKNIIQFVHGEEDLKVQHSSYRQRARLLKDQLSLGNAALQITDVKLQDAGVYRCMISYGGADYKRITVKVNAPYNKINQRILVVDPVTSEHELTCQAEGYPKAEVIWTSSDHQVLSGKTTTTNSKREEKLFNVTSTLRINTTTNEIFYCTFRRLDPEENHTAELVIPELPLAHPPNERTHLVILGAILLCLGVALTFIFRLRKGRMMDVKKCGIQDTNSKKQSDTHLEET
Description: The assay was performed following the manufacturer's protocol for the PD-1/PD-L1 blockade bioassay (Promega).
The bioluminescent cell-based PD-1/PD-L1 blockade bioassays provide a good option for rapid screening of therapeutic antibodies or other compounds developed to interfere with PD-1-signaling interaction. PD1/PD-L1 blockade assay was used to test the functionality of 3 anti-PD-L1 antibodies. It was observed that purified polyclonal anti-PD-L1 antibody from the rabbits was able to block PD1/PD-L1 interaction similar to commercial anti-human PD-L1 antibody (FIG. 12). […] In FIG. 12, we show the capacity of each of the PD-L1 vaccines to block the PD-1:PD-L1 interaction as compared to Nivolumab and Atezolizumab. Remarkably only PD-L1 130-147 antibodies were effective
The assay was performed following the manufacturer's protocol for the PD-1/PD-L1 blockade bioassay (Promega). In brief, 4×10^5 aAPC/CHO-K1 or PD-L1 aAPC/CHO-K1 cells were seeded into 96-well plates in RPMI-1640 with 10% FBS. After overnight culturing, the medium was aspirated, and serially diluted purified PD-L1 or PD-1 antibodies, as well as Nivolumab and Atezolizumab antibodies (as reference antibodies) were added. Next, PD-1 effector cells were co-cultured and plate was kept for 5 h at 37° C. in a humidified 5% CO2 incubator. Following mixing with Bio-Glo Reagent, the luminescence was measured with a luminescence plate reader, SpectraMax M3 plate reader (Molecular Devices).

[1] = test system: MVF-PD-L1 peptide immunogen; test: Immunogenicity in Balb/c mice, experiment 2 (CT26/HER-2): ELISA of sera vs each MVF-PD-L1 peptide immunogen; format: in vivo; details: Balb/c mice
Description: Immunogenicity of MVF-PD-L1 B-cell epitopes. New Zealand White rabbits were immunized with 1 mg of each MVF-peptide immunogens dissolved in dd H2O emulsified (1:1) in Montanide ISA 720 vehicle (Seppic) with 333 μg of N-acetylglucosamine-3yl-acetyl-1-alanyl-d-isoglutamine (nor-MDP). Rabbits were boosted with the same doses at 3-week's intervals. Blood was collected via the central auricular artery in rabbits. Blood was collected weekly (1Y+3, 2Y+1, 2Y+2,2Y+3, 3Y+1, 3Y+2 and sera tested for antibody titers by ELISA using the immunogens MVF-PD-L1 peptides. Sera (terminal) from rabbit (3Y+3) immunized with MVF-PD-1 peptide immunogens were tested individually versus the immunogen by ELISA. 200 ng/well peptide were used in duplicates to coat the ELISA plates. Titers are defined as the highest dilution of sera with an absorbance value of 0.2 after subtracting the blank. […]
In order to verify the efficacy of the PD-L1 epitope vaccines in vivo in the CT26/HER-2 carcinoma cell line, Balb/c mice (10 mice/group) were immunized with 100 μg each of MVF-PD-L1 (36-53), MVF-PD-L1 (50-67), MVF-PD-L1 (95-112) and MVF-PD-L1 (130-147) emulsified with nor-MDP and Montanide 720 (1:1 ratio) SCHEME 2A (FIG. 15A). As detailed in SCHEME 2A-D (FIGS. 15A, 15B, 15C, and 15D), mice were immunized 3 times at 3 weeks intervals. […] All PD-L1 epitopes elicited high titers of PD-L1 anti-peptide antibodies by ELISA. […] We also investigated the combination of PD-1(92-110) with PD-L1-95.
For each peptide, vaccine antibodies were raised in New Zealand white rabbits, purchased from Charles River Laboratories (Wilmington, MA, USA). Rabbits were immunized with 1 mg of MVF chimeric peptide emulsified in Montanide ISA 720 (Seppic, Paris, France) and boosted 3 times at three week intervals. For mouse experiments, mice, 6-8 weeks old, were immunized with 0.1 mg of peptide emulsified in ISA720 (1:1 ratio). Mice were boosted with the respective doses at 3-week intervals. Blood was then collected and sera were tested for antibody titers. Sera were collected weekly and peptide vaccine antibodies were purified by affinity chromatography using a protein A/G column and the concentration was measured using Spectrophometer. All experiments were performed in accordance with the U.S. Public Health Service Policy on Humane Care and Use of Laboratory animals and approved by the Ohio State University Institutional Animals Care and Use Committee, detailed in the accepted protocol.
6-8 weeks old BALB/c mice (Charles River, Wilmington, MA) were used as standard animal models. Mouse CT26 colon carcinoma cell line was purchased from American Type Culture Collection Cells and were regularly cultured in RPMI1640 medium containing 10% FBS. CT26/HER2 cells were kindly provided by M. Penichet. Vaccines were dissolved in sterile water and emulsified in Montanide ISA 720 (1:1). Female Balb/c mice (Charles River Laboratories) at the age of 6-8 weeks were immunized three times at 3-week intervals with 100 μg of each peptide vaccine, and 2 weeks after the third immunization, the mice were challenged with CT26 and/or CT26/HER-2 tumor cells, which were implanted subcutaneously (s.c) on the right flank (1×10^5 per mouse). 200 μg of rat α-mouse PD-L1 mAb 10F.9G2 (Bio X Cell, West Lebanon, NH) were administered intraperitoneally (i.p.), twice weekly following tumor inoculation in the control group. Mice were monitored and scored for the formation of palpable tumors on a daily basis and sacrificed if tumors became necrotic or exceeded the predetermined size of 2,000 mm^3. Tumor volumes were measured in cubic millimeters with calipers and calculated with the following formula: A×B^2×0.5, where A is the largest diameter, and B is the widest point perpendicular to length. During immunization, blood was drawn weekly and used in ELISA to monitor antibody titers.

Sequence | blocking of PD-1/PD-L1 interaction (PD-1/PD-L1 interaction) | Immunogenicity (titers) 1′ Conc. 1: ([1]; bleed 1Y + 3) | Immunogenicity (titers) 1′ Conc. 1: ([1]; bleed 2Y + 1) | Immunogenicity (titers) 1′ Conc. 1: ([1]; bleed 2Y + 2) | Immunogenicity (titers) 1′ Conc. 1: ([1]; bleed 2Y + 3) | Immunogenicity (titers) 1′ Conc. 1: ([1]; bleed 3Y + 1) | Immunogenicity (titers) 1′ Conc. 1: ([1]; bleed 3Y + 2) | Immunogenicity (titers) 1′ Conc. 1: ([1]; bleed 3Y + 3)
KLLSLIKGVIVHRLEGVEGPSLFVHGEEDLKVQHSSYRQR (KLLSLIKGVIVHRLEGVEGPSLFVHGEEDLKVQHSSYRQR-NH2) [PD-L1(50)] | unable to block PD-1 and PD-L1 | 6400 | 25600 | 128000 | 128000 | 128000 | 256000 | 256000
KLLSLIKGVIVHRLEGVEGPSLLIVYWEMEDKNIIQFVHG (KLLSLIKGVIVHRLEGVEGPSLLIVYWEMEDKNIIQFVHG-NH2) [PD-L1(36)] |  | 0 | 1600 | 4000 | 32000 | 16000 | 32000 | 16000
